Source: paper PMC13372681, “A natural depsipeptide antibiotic binds the E-site of the bacterial ribosome” (Nature, 2026)
≈ marks a conversion by molar mass, not a printed value. Like-named read-outs stand apart in the source and are kept apart here. Where a SMILES comes first, the peptide text is derived from it. Bridges are numbered along the chain shown (N, C = ends). [ ]: non-standard residue; d: D form. dOrn = NCCC[C@@H](N)C(=O)O

Legend:
E. coli C1508 = settings: broth microdilution, MDR clinical isolate
S. enterica ATCC 14028 = settings: broth microdilution, Ca+ MHB Medium
[1] = system: Candida albicans ATCC 90028
[2] = system: Bacteroides fragilis GC73; test: MIC, anaerobic gut bacteria; assay type: cell-based; settings: gut isolate, BHI + L-cysteine, haemin, vitamin K, 37 °C
E. coli ΔtolC ΔbamB = settings: broth microdilution
[3] = Acute tolerability in mice; assay type: in vivo; settings: doses up to 220 mg kg^−1 per day (divided into four doses over 20 hours, subcutaneous)
HEK293 cells = test: Mammalian cytotoxicity, Cell Titer Glo; assay type: cell-based, human; settings: 48 h exposure, DMEM + 10% FBS, 1% DMSO, Cell Titer Glo 2.0 luminescence
Procedure: (§1) Mammalian culture was performed in Dulbecco Modified Eagle Medium (DMEM) supplemented with 10% fetal bovine serum (FBS), 2 mM L-glutamine, 100 units ml^−1 penicillin and 100 µg ml^−1 streptomycin. HEK293 cells (ATCC CRL-1573; generation 6) were seeded at 7,500 cells per well and HepG2 cells (ATCC HB8065; generation 18) were seeded at 4,000 cells per well in 384-well tissue culture-treated white plates in 50 µl DMEM and incubated for 18 h at 37 °C in the presence of 5% CO2. After 18 h of incubation, 500 nl of the compound and DMSO (1% final concentration) were added to the cells using a Labcyte Echo acoustic dispenser (Beckman Coulter). Cells were further incubated for 48 h and after that cell viability was assessed using Promega Cell Titer Glo 2.0 reagent (Fisher Scientific). Before incubating the plates at room temperature for 10 min, 50 µl of Cell Titer Glo was added directly to the medium. The plates were then shaken for 2 min. The Neo2 plate reader (Biotek) was used to read the luminescence through luminescent fibre. Cells that were either not treated or solely treated with DMSO were used as a control.

HepG2 cells = test: Mammalian cytotoxicity, Cell Titer Glo; assay type: cell-based, human; settings: 48 h exposure, DMEM + 10% FBS, 1% DMSO, Cell Titer Glo 2.0 luminescence
Procedure: as §1

[4] = mouse plasma 1:1 with PBS pH 7.4, 10 µM, 37 °C, 0–120 min, LC–MS, % remaining; duplicate, two biological replicates
in vivo = settings: female, ICR CD-1, mouse, plasma, sc; for level at 8 h / level at 24 h: below limit of quantification
Blautia obeum GC925 = test: MIC, anaerobic gut bacteria; assay type: cell-based; settings: gut isolate, BHI + L-cysteine, haemin, vitamin K, 37 °C
M. tuberculosis H37Ra = settings: Middlebrook 7H9 + 10% OADC + 0.05% Tween-80
E. coli C1507 = settings: broth microdilution, Ca+ MHB Medium; MDR clinical isolate
[5] = human plasma 1:1 with PBS pH 7.4, 10 µM, 37 °C, 0–120 min, LC–MS, % remaining; duplicate, two biological replicates
S. aureus USA 300 = settings: broth microdilution, MHBII
Red blood cells (RBCs) = test: Haemolysis assay; assay type: cell-based; settings: human RBCs 1:50 in PBS pH 7.4, 37 °C, 1 h, absorbance 540 nm
Procedure: Human blood was obtained from BioIVT (USA). Red blood cells (RBCs) were separated from blood by centrifugation at 500g for 5 min. Plasma was removed and the RBCs were washed twice with 150 mM NaCl, using a volume equivalent to the removed plasma. After washing, phosphate-buffered saline (PBS) with a pH of 7.4, in a volume equal to the removed plasma, was added to create the RBC suspension. Using a Labcyte Echo acoustic dispenser (Beckman Coulter), 1 µl of the compound was added to the wells of a 96-well V-bottom plate. The final concentration of DMSO was kept at 1% (v/v), with a DMSO-only negative control included in each replicate. For the positive control, 10 µl of Triton X-100 was added, starting at a concentration of 20% and serially diluted twofold to 0.02%. RBCs were diluted 1:50 in PBS (pH 7.4), and 99 µl of this diluted solution was added to each well. The plates were incubated at 37 °C for 1 h, then centrifuged at 500g for 5 min to pellet the intact RBCs. Sixty-five microlitres of the supernatant was transferred to a clear, flat-bottom 96-well plate, and the absorbance was measured at 540 nm.

[6] = system: Clostridium perfringens GC1584; settings: gut isolate; BHI + L-cysteine, haemin, vitamin K, anaerobic, 37 °C
[7] = system: M. bovis BCG Pasteur ATCC 35734; settings: Middlebrook 7H9 + 10% OADC + 0.05% Tween-80
[8] = broth microdilution, Ca+ MHB Medium
[9] = 50 mg/kg, Plasma concentration MKM, s.c. 50 mg/kg, Mouse 2
[10] = 50 mg/kg, Plasma concentration MKM, s.c. 50 mg/kg, Mouse 3
[11] = 50 mg/kg, Plasma concentration MKM, s.c. 50 mg/kg, Mouse 1

In the case of C[C@@H](O)[C@@H]1NC(=O)[C@@H](CCCNC(=N)N)NC(=O)[C@@H](CCCNC(=N)N)NC(=O)[C@@H](CC(N)=O)NC(=O)[C@@H](NC(=O)[C@@H](Cc2ccccc2)NC(=O)[C@@H](CCCN)NC(=O)[C@H](N)CCCNC(=N)N)[C@@H](C)OC(=O)[C@H](Cc2c[nH]cn2)NC1=O [MKM-A, manikomycin] (H-[dR][dOrn][dF]T[dN][dR][dR]TH; ester 4-C), the MIC (E. coli C1508; Ca+ MHB Medium) is reported as 32 µg/mL (≈ 27 µM), the MIC (E. coli C1508; MOPS Minimal Medium) is reported as 16 µg/mL (≈ 13.5 µM) and the MIC (E. coli C1508; RPMI Medium) is reported as 4 µg/mL (≈ 3.38 µM). For the same molecule, the MIC (P. aeruginosa PAO1; PAO1) was greater than 64 µg/mL, the MIC (P. aeruginosa PAO1; [8]) was greater than 128 µg/mL and the MIC (P. aeruginosa PAO1; broth microdilution, MOPS Minimal Medium) was greater than 128 µg/mL. The MIC (S. enterica ATCC 14028) was 32 µg/mL (≈ 27 µM), the MIC [1] was greater than 64 µg/mL and the MIC [2] was greater than 256 µg/mL. The MIC (E. coli BW25113; BW25113) was 4 µg/mL (≈ 3.38 µM), the MIC (E. coli BW25113; broth microdilution, Ca+ MHB Medium (cation-adjusted MHB)) was 32 µg/mL (≈ 27 µM) and the MIC (E. coli ΔtolC ΔbamB; Ca+ MHB Medium) was 8 µg/mL (≈ 6.76 µM). It also gave an MIC (E. coli ΔtolC ΔbamB; MOPS Minimal Medium) of 2 µg/mL (≈ 1.69 µM), an MIC (E. coli ΔtolC ΔbamB; RPMI Medium) of 2 µg/mL (≈ 1.69 µM) and an MIC (K. pneumoniae C1459; C1459) of 8 µg/mL (≈ 6.76 µM). The MIC (K. pneumoniae C1459; broth microdilution, Ca+ MHB Medium, MDR clinical isolate) was 32 µg/mL (≈ 27 µM), the MIC (S. aureus ATCC 29213) was 64 µg/mL (≈ 54.1 µM) and the acute tolerability [3] was “acceptable acute tolerability”. For the same molecule, the “HEK 293 (IC50)” value (HEK293 cells) was greater than 256 µg/mL, the “HepG2 (IC50)” value (HepG2 cells) was greater than 256 µg/mL and the stability in plasma [4] was “excellent stability”. For the same molecule, the Cmax (in vivo; 50 mg kg^−1) was 9130 ng/mL, the half-life (in vivo; 50 mg kg^−1) was roughly 36 min and the level at 0.25 h (in vivo; 50 mg/kg, Plasma concentration MKM, s.c. 50 mg/kg, Mouse 1, linear range 1.6–50 µg/ml) was 6650 ng/mL. It also gave a level at 0.25 h (in vivo; [9]) of 8580 ng/mL, a level at 0.25 h (in vivo; [10]) of 9540 ng/mL and a level at 0.5 h (in vivo; 50 mg/kg, Plasma concentration MKM, s.c. 50 mg/kg, Time 0.5 (h), Mouse 3) of 9170 ng/mL. The level at 1 h (in vivo; [11]) was 6890 ng/mL, the level at 1 h (in vivo; [9]) was 9080 ng/mL and the level at 1 h (in vivo; [10]) was 6930 ng/mL. For the same molecule, the level at 2 h (in vivo; [11]) was 1470 ng/mL, the level at 2 h (in vivo; [9]) was 1060 ng/mL and the level at 2 h (in vivo; [10]) was 2600 ng/mL. It also gave a level at 8 h (in vivo; [11]) of 386 ng/mL, a level at 8 h (in vivo; [9]) of 55.8 ng/mL and a level at 8 h (in vivo; [10]) of 108 ng/mL. For the same molecule, the level at 24 h (in vivo; [11]) was 71.5 ng/mL, the level at 24 h (in vivo; [9]) was 27.3 ng/mL and the level at 24 h (in vivo; [10]) was 68 ng/mL. It also gave an MIC (Blautia obeum GC925) greater than 256 µg/mL, an MIC (M. tuberculosis H37Ra) of 4 µg/mL and an MIC (E. coli C1507) of 32 µg/mL (≈ 27 µM). For the same molecule, the stability in plasma [5] was “excellent stability”, the MIC (S. aureus USA 300) was 128 µg/mL (≈ 108 µM) and the “Haemolysis (256 μg/ml)” value (Red blood cells (RBCs)) was less than 1%. It also gave an MIC [6] greater than 256 µg/mL, an MIC [7] of 2 µg/mL and an MIC (A. baumanii ATCC 17978; ATCC 17978) of 64 µg/mL (≈ 54.1 µM). For the same molecule, the MIC (A. baumanii ATCC 17978; [8]) was greater than 128 µg/mL.
